Measured values published in PMC7391767, “Molecular mechanisms underlying menthol binding and activation of TRPM8 ion channel” (Nature Communications, 2020).
“And” between values parts separate entries of the source, which are not always exact repeats. Equal values may be shown once. Read-outs that look alike come from different tables or passages of the source.

Assays:
[1] = target: T1, wild-type TRPM8 (Mus musculus, UniProt Q8R4D5); assay: whole-cell patch-clamp recording of ligand activation; assay type: cell-based
T1 construct: expressed in transfected cells; host or cells: HEK293T
T1 sequence (Q8R4D5 whole entry): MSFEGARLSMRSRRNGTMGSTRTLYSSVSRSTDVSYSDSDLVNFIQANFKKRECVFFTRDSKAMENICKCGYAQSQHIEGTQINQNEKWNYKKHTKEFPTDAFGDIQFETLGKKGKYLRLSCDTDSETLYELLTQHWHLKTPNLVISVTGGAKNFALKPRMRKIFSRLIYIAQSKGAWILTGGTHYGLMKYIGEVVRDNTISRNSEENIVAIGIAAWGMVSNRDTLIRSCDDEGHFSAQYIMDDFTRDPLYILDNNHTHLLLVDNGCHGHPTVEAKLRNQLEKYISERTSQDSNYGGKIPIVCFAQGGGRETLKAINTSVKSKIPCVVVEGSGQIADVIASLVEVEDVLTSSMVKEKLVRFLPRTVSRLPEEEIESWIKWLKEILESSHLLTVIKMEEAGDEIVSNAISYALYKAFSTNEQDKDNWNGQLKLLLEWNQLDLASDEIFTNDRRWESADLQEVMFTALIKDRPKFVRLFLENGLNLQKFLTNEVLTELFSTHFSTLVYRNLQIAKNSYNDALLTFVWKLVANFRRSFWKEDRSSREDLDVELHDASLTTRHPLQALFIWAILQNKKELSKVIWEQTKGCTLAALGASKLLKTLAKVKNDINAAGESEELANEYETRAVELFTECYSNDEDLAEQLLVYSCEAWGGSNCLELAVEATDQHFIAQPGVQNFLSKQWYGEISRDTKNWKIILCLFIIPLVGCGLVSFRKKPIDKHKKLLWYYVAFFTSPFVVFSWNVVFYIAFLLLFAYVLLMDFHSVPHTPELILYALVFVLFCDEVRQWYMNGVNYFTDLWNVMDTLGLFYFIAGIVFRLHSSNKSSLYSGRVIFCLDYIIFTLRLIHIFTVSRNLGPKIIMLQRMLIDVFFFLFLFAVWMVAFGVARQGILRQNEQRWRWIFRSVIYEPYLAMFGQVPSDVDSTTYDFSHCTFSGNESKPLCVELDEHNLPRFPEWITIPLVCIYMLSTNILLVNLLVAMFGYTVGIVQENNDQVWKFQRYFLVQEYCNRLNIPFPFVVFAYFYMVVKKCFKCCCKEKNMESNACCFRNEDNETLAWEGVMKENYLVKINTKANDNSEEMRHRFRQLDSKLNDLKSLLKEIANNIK
Method: (§1) Murine TRPM8 was used in this study. Point mutations were made by Fast Mutagenesis Kit V2 (SBS Genetech). Primers used to generate point mutations are summarized in Supplementary Table 2.
Cells were transiently transfected with cDNA constructs by Lipofectamine 3000 (Life Technologies) following the manufacturer’s protocol. Patch-clamp recordings were performed 1–2 days after transfection.
(§2) Patch-clamp recordings were performed with a HEKA EPC10 amplifier controlled by PatchMaster software (HEKA). Whole-cell recordings were performed at ±80 mV. Patch pipettes were prepared from borosilicate glass and fire-polished to resistance of ~4 MΩ. For whole-cell recording, serial resistance was compensated by 60%. For single-channel recordings, patch pipettes were fire-polished to a higher resistance of 6-to-10 MΩ and then recorded in the inside-out configuration. To maximize the chance of obtaining a patch with only one channel, single-channel recordings were performed about 8 h after transfection. A solution with 130 mM NaCl, 10 mM glucose, 0.2 mM EDTA, and 3 mM HEPES (pH 7.2) was used in both bath and pipette for either whole-cell or single-channel recordings. Membrane potential was clamped at +80 mV for single-channel recordings. Current was sampled at 10 kHz and filtered at 2.9 kHz. All recordings were performed at room temperature (22 °C) with the maximum variation of 1 °C.
(§3) Ligands such as menthol and its analogs were perfused to membrane patch by a gravity-driven system (RSC-200, Bio-Logic). Bath and ligand solution were delivered through separate tubes to minimize the mixing of solutions. Patch pipette was placed in front of the perfusion tube outlet.
(§4) Data from whole-cell recordings were analyzed in Igor Pro version 6.1 (WaveMatrix). EC50 values were derived from fitting a Hill equation to the concentration–response relationship. […] To distinguish these possibilities, dissociation constant (Kd) for ligand binding was estimated assuming the following gating scheme:1 C0↔KdC1↔LO, where L is the equilibrium constant for the final closed-to-open transition.

[2] = tested on: ANAP-incorporated TRPM8 mutants; assay: patch-clamp test of function of ANAP-incorporated TRPM8 mutants; assay type: cell-based, mouse; conditions: Menthol 1 mM
Method: L-ANAP methyl ester was purchased from AsisChem. pANAP vector was purchased from Addgene. ANAP was incorporated into TRPM8 by introducing a TAG amber stop codon mutation as previously reported. Briefly, after co-transfection of both TRPM8 and pANAP vectors, ANAP was directly added to the culture medium to the final concentration of 20 µM. After 1–2 days, ANAP-containing culture medium was completely changed. Cells were further cultured in ANAP-free medium overnight before experiments.
as §2
Supplementary Table 1. ANAP- incorporated TRPM8 mutants. The function of these
ANAP- incorporated mutants was accessed by patch- clamp recordings. Menthol (1 mM)
was perfused to activate a mutant channel.

[3] = target: T2, TRPM8 Y1005F (Mus musculus, UniProt Q8R4D5, Y1005F); assay: whole-cell patch-clamp and thermodynamic mutant cycle analysis; assay type: cell-based; conditions: patch-clamp, peer review file
T2 construct: expressed in transfected cells; host or cells: HEK293T
T2 sequence (Q8R4D5 whole entry Y1005F): as the sequence (Q8R4D5 whole entry) above, with Y1005F counted along it
Method: as §1
(§5) HEK293T cells purchased from Kunming Cell Bank, Kunming Institute of Zoology, Chinese Academy of Sciences (ATCC, CRL-3216) were cultured in Dulbecco’s modified Eagle’s medium supplemented with 20 mM L-glutamine and 10% fetal bovine serum. Cells were transiently transfected with cDNA constructs by Lipofectamine 3000 (Life Technologies) following the manufacturer’s protocol. Patch-clamp recordings were performed 1–2 days after transfection.
as §2, §3, §4
(§6) To perform thermodynamic cycle analysis, Kd values of four channel-ligand combinations (WT channel, menthol: Kd _1; Mutant channel, menthol: Kd _2; WT channel, menthol analog: Kd _3; Mutant channel, menthol analog: Kd _4) were determined separately. The strength of coupling was determined by the coupling energy (kT multiplied by LnΩ, where k is the Boltzmann constant and T is temperature in Kelvin). LnΩ was calculated by Eq. (2) as[51]2 LnΩ=LnKd_1⋅Kd_4/Kd_2⋅Kd_3.

[4] = target: T3, TRPM8 R842K (Mus musculus, UniProt Q8R4D5, R842K); assay: as above; assay type: cell-based
T3 construct: expressed in transfected cells; host or cells: HEK293T
T3 sequence (Q8R4D5 whole entry R842K): as the sequence (Q8R4D5 whole entry) above, with R842K counted along it
Method: as §1, §5, §2, §3, §4, §6

[5] = target: T4, TRPM8 I846V (Mus musculus, UniProt Q8R4D5, I846V); assay: as above; assay type: cell-based
T4 construct: expressed in transfected cells; host or cells: HEK293T
T4 sequence (Q8R4D5 whole entry I846V): as the sequence (Q8R4D5 whole entry) above, with I846V counted along it
Method: Murine TRPM8 was used in this study. Point mutations were made by Fast Mutagenesis Kit V2 (SBS Genetech). Primers used to generate point mutations are summarized in Supplementary Table 2. All mutations were confirmed by sequencing.
as §5, §2, §3
Data from whole-cell recordings were analyzed in Igor Pro version 6.1 (WaveMatrix). EC50 values were derived from fitting a Hill equation to the concentration–response relationship. Changes in EC50 by point mutation may be caused by either perturbation of ligand bind or channel gating or both. To distinguish these possibilities, dissociation constant (Kd) for ligand binding was estimated assuming the following gating scheme:1 C0↔KdC1↔LO, where L is the equilibrium constant for the final closed-to-open transition.
as §6

[6] = calculated from concentration–response curves, read-out: Kd, Ave

## CC(C)[C@@H]1CC[C@@H](C)C[C@H]1O [menthol, (−)-menthol]
[1]; WT
  L (equilibrium constant between closed and open states upon ligand binding), Ave: 4.672 and 4.642
[1]; WT, 1 microM
  concentration–response curve value, ave: 0.025 and 0.02453
  concentration–response curve value, single recording: 0.025 and 0.02453
[1]; WT, 10 microM
  concentration–response curve value, ave: 0.025 and 0.0249
  concentration–response curve value, single recording: 0.021 and 0.029 and 0.02072 and 0.02909
[1]; WT, 20 microM
  concentration–response curve value, ave: 0.043
[1]; WT, 30 microM
  concentration–response curve value, ave: 0.090 and 0.08976
[1]; WT, 100 microM
  concentration–response curve value, ave: 0.426 and 0.4264
  concentration–response curve value, single recording: 0.426 and 0.453 and 0.400 and 0.4256 and 0.4532 and 0.4003
[1]; WT, 500 microM
  concentration–response curve value, ave: 0.760 and 0.7604
  concentration–response curve value, single recording: 0.796 and 0.730 and 0.755 and 0.7302 and 0.7548
[1]; WT, 1000 microM
  concentration–response curve value, ave: 0.801 and 0.8014
  concentration–response curve value, single recording: 0.847 and 0.769 and 0.788 and 0.8469 and 0.7692 and 0.7882
[1]; WT, calculated from concentration–response curves (EC50 and Po max), read-out: Kd, Ave
  Kd: 966 µM
[1]; wild-type TRPM8
  Hill coefficient: 1.74 ± 0.06
[2]; A875ANAP (S5)
  Menthol activation: YES
[2]; D920ANAP (Between S5 and S6)
  Menthol activation: YES
[2]; I962ANAP (S6)
  Menthol activation: YES
[2]; L774ANAP (S2)
  Menthol activation: YES
[2]; L817ANAP (S3)
  Menthol activation: YES
[2]; L864ANAP (S5)
  Menthol activation: YES
[2]; L939ANAP (Between S5 and S6)
  Menthol activation: YES
[2]; N789ANAP (S2S3 linker)
  Menthol activation: YES
[2]; N821ANAP (S3-S4 linker)
  Menthol activation: YES
[2]; N852ANAP (S4)
  Menthol activation: YES
[2]; N947ANAP (Between S5 and S6)
  Menthol activation: YES
[2]; P734ANAP (S1)
  Menthol activation: YES
[2]; P952ANAP (Between S5 and S6)
  Menthol activation: YES
[2]; P958ANAP (Between S5 and S6)
  Menthol activation: YES
[2]; S819ANAP (S3-S4 linker)
  Menthol activation: YES
[2]; S820ANAP (S3-S4 linker)
  Menthol activation: YES
[2]; S823ANAP (S3-S4 linker)
  Menthol activation: YES
[2]; S824ANAP (S4)
  Menthol activation: YES
[2]; S921ANAP (Between S5 and S6)
  Menthol activation: YES
[2]; S966ANAP (S6)
  Menthol activation: YES
[2]; T795ANAP (S2S3 linker)
  Menthol activation: YES
[2]; V791ANAP (S2S3 linker)
  Menthol activation: YES
[2]; V876ANAP (S5)
  Menthol activation: YES
[2]; W954ANAP (Between S5 and S6)
  Menthol activation: YES
[2]; Y787ANAP (S2)
  Menthol activation: YES
[2]; Y808ANAP (S3)
  Menthol activation: YES
[3]
  EC50: 498 ± 8.7 µM
[4]
  L (equilibrium constant between closed and open states upon ligand binding), Ave: 18.3882
  L, single recording: 24.6476 and 13.2288 and 17.2882
[4]; 20 microM
  concentration–response curve value, ave: 0.01439
[4]; 100 microM
  concentration–response curve value, ave: 0.2373
  concentration–response curve value, single recording: 0.2375 and 0.1865 and 0.1541 and 0.2977 and 0.2927 and 0.2 and 0.2925
[4]; 500 microM
  concentration–response curve value, ave: 0.6774
  concentration–response curve value, single recording: 0.6802 and 0.7221 and 0.591 and 0.6718 and 0.7751 and 0.601 and 0.7009
[4]; 1000 microM
  concentration–response curve value, ave: 0.8246
  concentration–response curve value, single recording: 0.892 and 0.8781 and 0.8012 and 0.8485 and 0.8182 and 0.7917 and 0.7425
[4]; 2000 microM
  concentration–response curve value, ave: 0.8146
  concentration–response curve value, single recording: 0.9219 and 0.8808 and 0.8026 and 0.7789 and 0.777 and 0.8121 and 0.7292
[4]; [6]
  Kd: 8710 µM
[4]; read-out: Kd, single recording
  Kd: 8480 µM and 6830 µM and 10800 µM
[5]
  L (equilibrium constant between closed and open states upon ligand binding), Ave: 5.981
[5]; 1 microM
  concentration–response curve value, ave: 0.07755
[5]; 20 microM
  concentration–response curve value, ave: 0.2593
[5]; 100 microM
  concentration–response curve value, ave: 0.6986
[5]; 500 microM
  concentration–response curve value, ave: 0.7722
[5]; 2000 microM
  concentration–response curve value, ave: 0.7707
  concentration–response curve value, single recording: 0.8798 and 0.8106 and 0.8028 and 0.882 and 0.5707 and 0.6784
[5]; [6]
  Kd: 120 µM
[5]; read-out: Kd, single recording
  Kd: 88.3 µM and 109 µM and 97.6 µM and 116 µM and 189 µM
